# Assay results published in patent publication US20240150396A1 (The Texas A&M University System, priority 2021, published 2024).
# Values joined by “and” are separate entries in the source; they are usually repeats but may differ in a detail not shown here. Identical values can stand only once. Like-named read-outs stand apart in the source and are kept apart here.
# What was measured:
# [1] = test system: T. b. brucei bloodstream forms; experiment: Growth of axenic cultures of T. b. brucei bloodstream forms (BSFs); settings: read-out: EC50 T. b. brucei BSF; axenic culture
# [2] = target: human cathepsin S (Homo sapiens (Human), UniProt P25774); settings: Ref. 32; read-out: apparent IC50 Human Cathepsin S; cited from earlier work
# [3] = test system: C2C12 mouse cardiomyoblast cell line; experiment: Host cell cytotoxicity in the T. cruzi infection model; format: cell-based; settings: host cardiomyoblasts; read-out: C2C12 Cytotoxicity CC50
# In short: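 C2C12 murine cardiomyoblasts infected with T. cruzi were incubated with compound 48 h at 37 °C, fixed in 2% PFA and stained with 5 μg/ml DAPI. Automated microscopy imaging quantified host cells and parasites separately; host cytotoxicity derived as CC50.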
# [4] = test system: T. cruzi epimastigotes (strain Y); experiment: Growth of axenic cultures of T. cruzi epimastigotes; settings: epimastigotes
# Protocol: Selected cruzain inhibitors in axenic cell cultures of Trypanosoma brucei brucei (procyclic trypomastigotes; ATCC PRA-381) and Trypanosoma cruzi (epimastigote forms; strain Y, ATCC 50832GFP) were tested. T. b. brucei is grown in SDM-79 medium, and T. cruzi is grown in ATCC medium (1029 LIT medium). Both media included fetal calf serum (10%) and penicillin/streptomycin (50 U/mL). […] T. brucei and T. cruzi (5 mL in flask cultures) at 26° C. were seeded at ˜3×10^6 cells, and diluted daily maintaining a mid-log growth phase for up to 100 hrs. Cell counts were scored using a Z2 Coulter Counter. After each cell dilution, fresh compound or an equal volume of DMSO (control samples), was supplemented into the cultures. […] Cruzain inhibitors where the highest concentration reflects the upper limit of solubilities of the inhibitors in 1% (v/v) DMSO solutions were evaluated. These inhibitors are likely to bind to proteins in fetal calf serum, and for these reasons, fresh inhibitors were added each time cells were re-fed.
# Selected cruzain inhibitors were evaluated in axenic cell cultures of T. b. brucei and T. cruzi. Procyclic trypomastigotes of T. b. brucei (ATCC PRA-381) were grown in the SDM-79 medium at 26° C., and bloodstream forms (ATCC PRA-383) were grown at 37° C. in the HMI-9 medium at 5% C02. T. cruzi (epimastigote forms, strain Y, ATCC 50832GFP) was grown in the ATCC medium (1029 LIT medium). Both forms of T. b. brucei and T. cruzi were grown in media containing 10% fetal bovine serum (FBS) and penicillin/streptomycin (50 U mL^−1). […] Control samples contained equal amounts of DMSO. T. b. brucei and T. cruzi (5 mL in flask cultures) were seeded at ˜3×10^6 cells and diluted daily, maintaining a mid-log growth phase for up to 120 h. […] After each cell dilution, fresh compound or an equal volume of DMSO (control samples) was supplemented into the cultures, while maintaining a constant concentration of each inhibitor. Cell counts were scored using a Z2 Coulter Counter.
# [5] = test system: human dermal fibroblasts; experiment: Human cell toxicity, resazurin viability; format: cell-based
# In short: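 Primary human dermal fibroblasts, 2400 cells/well, exposed in duplicate to inhibitors at final 0.001-0.1 mM in 1% DMSO (1% DMSO control) for 48 h at 37 °C. Resazurin then added and viability read by fluorescence (544/590 nm) after further 24 h.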
# [6] = test system: T. cruzi (Ca-I/72) in C2C12 murine cardiomyoblasts; experiment: T. cruzi-infected murine cardiomyoblasts (C2C12); format: cell-based, Trypanosoma cruzi; settings: C2C12 murine cardiomyoblasts, read-out: EC50 T. cruzi-infected cardiomyoblasts
# In short: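 Infected-host-cell imaging assay: inhibitor, 3-fold dilutions topping at 10 μM, was added to C2C12 murine cardiomyoblasts infected with 10^3 or 10^4 Ca-I/72 parasites for 2 days at 37° C. DAPI-stained fixed wells were imaged to count parasites and host cells separately, yielding antiparasitic EC50 and cytotoxic CC50.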
# [7] = Thiolation of inhibitors with glutathione, LCMS; format: physicochemical; settings: 1 mM glutathione, 0.5 mM compound, Tris pH 8.0, 10% DMSO, room temperature
# Protocol: Samples were analyzed by HPLC-MS (as described above) by injecting 0.01 mL aliquots onto a Luna […] C18(2) 100 Å, 4.6 mm, 50 mm column (Phenomenex) using the HPLC method described in the chemistry section at 0-6 h time points. […] Integration of the chromatographic peaks of the inhibitors and their GSH adducts at each time point was used to determine the rate of GSH adduct formation.
# [8] = test system: T. cruzi epimastigotes (strain Y); settings: Ndao et al. (2014), read-out: trypanocidal activity EC50; cited from earlier work
# [9] = test system: T. b. brucei procyclic forms; experiment: Growth of axenic cultures of T. b. brucei procyclic forms (PCFs); format: cell-based, Trypanosoma brucei brucei; settings: axenic culture; read-out: EC50 T. b. brucei PCF
# Sequence of human cathepsin S (P25774 115-331): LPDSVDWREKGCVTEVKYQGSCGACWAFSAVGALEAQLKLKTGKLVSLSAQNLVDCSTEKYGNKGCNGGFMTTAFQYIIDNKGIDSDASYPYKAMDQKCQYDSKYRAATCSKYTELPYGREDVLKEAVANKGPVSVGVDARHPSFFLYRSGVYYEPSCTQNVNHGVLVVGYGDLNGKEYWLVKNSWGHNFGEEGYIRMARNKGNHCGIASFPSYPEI
structure (smiles),measurement,setting,value
"CN1CCN(C(=O)N[C@@H](Cc2ccccc2)C(=O)N[C@H](/C=C/S(=O)(=O)c2ccccc2)CCc2ccccc2)CC1 [Compound K11777, reference compound]",EC50,[1],90 ± 60 nM
same,IC50,[2],0.6 nM
same,CC50,[3],> 10000 nM
same,T. cruzi axenic culture EC50,[4],poorly effective
same,EC50,[4]; read-out: T. cruzi axenic culture EC50,~60000 nM
same,EC50,[5],70000 nM
same,"toxicity in human dermal fibroblasts, concentration",[5]; concentration at which toxicity was or was not seen,70 µM
same,CC50,"[5]; human dermal fibroblasts, read-out: Human Cell Cytotoxicity CC50",60000 to 100000 nM
same,EC50,[6]; listed as K777,38 ± 9 nM
same,EC50,[6],700 nM
same,"Rate of Thiolation, k",[7],0.00467 ± 0.0067 M⁻¹ s⁻¹
same,EC50,[8],10000 to 100000 nM
same,EC50,[9],2000 nM and 2300 nM and 1700 nM
